pIC50: −log10 of the molar value. Activity calls are given as the source filed them. The calls are words filed in the database; no cut-off is given here.
Experiments:
[1] = biological target: T1, Nitric oxide synthase, inducible (Mus musculus) (UniProt P29477); assay: Inhibition of iNOS-mediated nitric oxide production in LPS-stimulated mouse RAW 264.7 cells treated 2 hrs before LPS challenge measured after 18 hrs by Griess reaction method relative to control; format: cell-based; parameters: concentration or dose not given beside the values; settings: concentration not given here
T1 sequence (whole entry): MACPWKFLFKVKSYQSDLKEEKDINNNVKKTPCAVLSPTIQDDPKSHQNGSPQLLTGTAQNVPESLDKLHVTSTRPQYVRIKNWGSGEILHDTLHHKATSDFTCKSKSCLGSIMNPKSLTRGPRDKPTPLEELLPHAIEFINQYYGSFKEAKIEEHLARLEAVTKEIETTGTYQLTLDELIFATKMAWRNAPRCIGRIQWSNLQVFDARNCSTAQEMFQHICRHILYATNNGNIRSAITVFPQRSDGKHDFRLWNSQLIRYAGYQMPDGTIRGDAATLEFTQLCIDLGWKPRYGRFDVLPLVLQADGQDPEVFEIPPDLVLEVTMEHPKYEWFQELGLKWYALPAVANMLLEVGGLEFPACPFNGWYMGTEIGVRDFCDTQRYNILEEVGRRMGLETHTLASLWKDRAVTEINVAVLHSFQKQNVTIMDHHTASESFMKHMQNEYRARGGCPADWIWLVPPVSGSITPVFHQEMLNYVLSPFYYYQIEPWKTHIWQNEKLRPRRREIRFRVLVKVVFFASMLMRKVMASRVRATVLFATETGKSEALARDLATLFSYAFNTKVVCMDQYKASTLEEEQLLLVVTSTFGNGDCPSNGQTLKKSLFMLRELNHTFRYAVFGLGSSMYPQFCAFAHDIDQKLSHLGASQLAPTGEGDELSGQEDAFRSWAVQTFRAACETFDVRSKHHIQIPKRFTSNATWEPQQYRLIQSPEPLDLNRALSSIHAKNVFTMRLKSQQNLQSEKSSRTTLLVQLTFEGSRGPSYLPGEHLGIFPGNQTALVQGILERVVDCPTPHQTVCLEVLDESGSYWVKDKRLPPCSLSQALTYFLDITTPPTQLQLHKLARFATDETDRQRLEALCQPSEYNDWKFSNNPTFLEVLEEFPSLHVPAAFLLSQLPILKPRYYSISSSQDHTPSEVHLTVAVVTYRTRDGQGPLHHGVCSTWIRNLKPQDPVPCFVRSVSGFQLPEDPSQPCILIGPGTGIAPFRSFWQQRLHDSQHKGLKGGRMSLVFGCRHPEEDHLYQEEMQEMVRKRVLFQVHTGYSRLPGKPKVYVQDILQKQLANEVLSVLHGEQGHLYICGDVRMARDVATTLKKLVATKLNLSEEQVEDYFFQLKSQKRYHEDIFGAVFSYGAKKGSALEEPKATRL

[2] = biological target: T2, Prostaglandin G/H synthase 2 (Mus musculus, UniProt Q05769); assay: Inhibition of COX2-mediated PGE2 production in LPS-stimulated mouse RAW 264.7 cells after 24 hrs by ELISA; format: cell-based
T2 sequence (Q05769 whole entry): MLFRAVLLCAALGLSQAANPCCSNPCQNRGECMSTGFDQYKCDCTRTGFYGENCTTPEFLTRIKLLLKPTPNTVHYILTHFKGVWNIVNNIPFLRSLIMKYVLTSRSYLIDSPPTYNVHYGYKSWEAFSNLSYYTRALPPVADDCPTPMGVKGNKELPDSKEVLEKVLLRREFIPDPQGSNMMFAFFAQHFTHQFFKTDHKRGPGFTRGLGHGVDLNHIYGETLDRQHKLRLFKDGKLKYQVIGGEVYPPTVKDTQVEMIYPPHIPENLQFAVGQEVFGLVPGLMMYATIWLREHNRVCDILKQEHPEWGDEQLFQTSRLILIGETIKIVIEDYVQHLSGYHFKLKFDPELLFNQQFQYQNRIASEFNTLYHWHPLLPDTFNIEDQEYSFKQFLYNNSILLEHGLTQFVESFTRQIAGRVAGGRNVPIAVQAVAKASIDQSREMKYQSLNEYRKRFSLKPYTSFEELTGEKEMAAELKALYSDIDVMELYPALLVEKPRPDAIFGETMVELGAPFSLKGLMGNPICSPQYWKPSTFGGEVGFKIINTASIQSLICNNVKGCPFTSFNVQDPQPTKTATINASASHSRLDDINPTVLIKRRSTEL

RAW264.7 [3] = assay: Cytotoxicity against LPS-stimulated mouse RAW264.7 cells after 24 hrs by MTT assay; format: cell-based; settings: RAW264.7, 24 h
[4] = biological target: T3, Nitric oxide synthase, inducible (Mus musculus, UniProt P29477)
T3 sequence (P29477 whole entry): T1 sequence (whole entry)
Description: Inhibition of iNOS in LPS-stimulated mouse RAW 264.7 cells after 2 hrs by fluorescence plate reader analysis

[5] = biological target: T3, Nitric oxide synthase, inducible; remark: listed apart in the source
RAW264.7 [6] = assay: cells; settings: Mus musculus, RAW264.7, 24 h
Description: Cytotoxicity against mouse RAW264.7 cells after 24 hrs by MTT assay

Rattus norvegicus [7] = assay: Antiarthritic activity in heat-killed mycobacterium tuberculosis-induced Lewis rat arthritis model assessed as decrease in arthritic score at 50 mg/kg, po QD for 28; format: functional, organism-based; parameters: dose 50 mg/kg
Mus musculus [8] = species on record: Mus musculus; settings: ICR, 10 mg/kg
Description: Antiinflammatory activity against acetic acid-induced vascular permeability in ICR mouse assessed as evans blue peritoneal leakage at 10 mg/kg, ip administered 30 mins before acetic acid challenge measured after 50 mins

RAW264.7 [9] = assay: Inhibition of LPS-induced iNOS protein expression in mouse RAW264.7 cells treated 2 hrs before LPS challenge measured after 18 hrs by Western blotting; format: functional, cell-based
RAW264.7 [10] = assay: Inhibition of LPS-induced COX2 protein expression in mouse RAW264.7 cells at 12 to 24 uM treated 2 hrs before LPS challenge measured after 18 hrs by Western blotting; format: functional, cell-based
Mus musculus [11] = assay: Antiinflammatory activity in ICR mouse assessed as inhibition of carrageenan-induced paw edema at 10 mg/kg, po administered 30 mins before carrageenan challenge measured up to 5 hrs; format: functional
Mus musculus [12] = assay: Antiinflammatory activity in ICR mouse assessed as inhibition of carrageenan-induced paw edema at 50 mg/kg, po administered 30 mins before carrageenan challenge measured up to 5 hrs; format: functional
Mus musculus [13] = assay: Antiinflammatory activity against acetic acid-induced vascular permeability in ICR mouse assessed as evans blue peritoneal leakage at 10 to 50 mg/kg, ip administered 30 mins before acetic acid challenge measured after 50 mins; format: functional, organism-based
Rattus norvegicus [14] = assay: Antiarthritic activity in heat-killed mycobacterium tuberculosis-induced Lewis rat arthritis model assessed as increase in boy weight at 50 mg/kg, po QD for 28 relative to control; format: functional
Rattus norvegicus [15] = assay: Antiarthritic activity in heat-killed mycobacterium tuberculosis-induced Lewis rat arthritis model assessed as leukocytes infiltreated into synovial tissue and synovial fluid of joints at 50 mg/kg, po QD for 28 using hematoxylin and eosin staining by microscopic analysis; format: functional, organism-based; parameters: dose 50 mg/kg
[16] = Cmax in Sprague-Dawley rat at 50 mg/kg, po; format: ADME, organism-based; parameters: dose 50 mg/kg, route oral; settings: in vivo
[17] = Cmax in Sprague-Dawley rat at 10 mg/kg, iv; format: ADME, organism-based; parameters: dose 10 mg/kg, route intravenous; settings: in vivo
[18] = Tmax in Sprague-Dawley rat at 50 mg/kg, po; format: ADME, organism-based; parameters: dose 50 mg/kg, route oral; settings: in vivo
[19] = Tmax in Sprague-Dawley rat at 10 mg/kg, iv; format: ADME, organism-based; parameters: dose 10 mg/kg, route intravenous; settings: in vivo
Rattus norvegicus [20] = assay: AUC (0 to t) in Sprague-Dawley rat at 50 mg/kg, po; format: ADME, organism-based, Plasma; parameters: dose 50 mg/kg, route oral; settings: in vivo
Rattus norvegicus [21] = assay: AUC (0 to t) in Sprague-Dawley rat at 10 mg/kg, iv; format: ADME, organism-based, Plasma; parameters: dose 10 mg/kg, route intravenous; settings: in vivo
[22] = Half life in Sprague-Dawley rat at 50 mg/kg, po; format: ADME, organism-based; parameters: dose 50 mg/kg, route oral; settings: in vivo
[23] = Half life in Sprague-Dawley rat at 10 mg/kg, iv; format: ADME, organism-based; parameters: dose 10 mg/kg, route intravenous; settings: in vivo
[24] = Oral bioavailability in Sprague-Dawley rat at 50 mg/kg; format: ADME, organism-based; settings: in vivo

Compound `O=C(COc1ccc(/C=C2\SC(=O)NC2=O)cc1)Nc1ccc(Cl)cc1Cl` has an inhibition [1] of 10%.
With `O=C(COc1ccc(/C=C2\SC(=O)NC2=O)cc1)Nc1cccc(F)c1` the inhibition [1] was 41.5%.
In the case of `O=C(COc1ccc(/C=C2\SC(=O)NC2=O)cc1)NC1CCCCC1`, the inhibition [1] was 47.8%.
For `O=C(COc1ccc(/C=C2\SC(=O)NC2=O)cc1)Nc1cccc2ccccc12`, the inhibition [1] was 70.9%, the pIC50 [2] was 4.79 and the pIC50 (RAW264.7 [3]) was 4.26. The pIC50 [4] was 4.40, the pIC50 [5] was 4.68 and the pIC50 (RAW264.7 [6]) was 4.21.
In the case of `COc1ccc2c(c1)c(CC(=O)O)c(C)n2C(=O)c1ccc(Cl)cc1` [INDOMETHACIN], the inhibition [1] was 63.2%, the pIC50 (RAW264.7 [3]) was < 4.00 and the Activity (Rattus norvegicus [7]) was “Active”. For the same compound, the inhibition (Mus musculus [8]) was “Active” and the pIC50 (RAW264.7 [6]) was < 4.00.
With `O=C(COc1ccc(/C=C2\SC(=O)NC2=O)cc1)NCc1ccccc1` the inhibition [1] was 41.6%.
`Cc1ccc(NC(=O)COc2ccc(/C=C3\SC(=O)NC3=O)cc2)cc1` gave an inhibition [1] of 38.4%.
For `O=C(COc1ccc(/C=C2\SC(=O)NC2=O)cc1)Nc1ccc(Cl)cc1`, the inhibition [1] was 9.7%.
`O=C(COc1ccc(/C=C2\SC(=O)NC2=O)cc1)Nc1ccc2ccccc2c1` gave an inhibition [1] of 45.1%.
Work on `O=C(COc1ccc(/C=C2\SC(=O)NC2=O)cc1)Nc1ccccn1` yielded an inhibition [1] of 14.6%.
With `O=C(COc1ccc(/C=C2\SC(=O)NC2=O)cc1)Nc1ccc(F)c(F)c1` the inhibition [1] was 83.9%, the pIC50 [2] was 5.15 and the pIC50 (RAW264.7 [3]) was < 4.00. For the same compound, the pIC50 [4] was 4.47, the pIC50 [5] was 4.86 and the pIC50 (RAW264.7 [6]) was < 4.00.
For `O=C(COc1ccc(/C=C2\SC(=O)NC2=O)cc1)Nc1ccc(C(F)(F)F)cc1`, the inhibition [1] was 26.6%.
In the case of `O=C(COc1ccc(/C=C2\SC(=O)NC2=O)cc1)Nc1cccc(Cl)c1`, the inhibition [1] was 80.9%, the pIC50 [2] was 5.38 and the pIC50 (RAW264.7 [3]) was < 4.00. The inhibition (RAW264.7 [9]) was “Dose-dependent effect”, the inhibition (RAW264.7 [10]) was “Active” and the inhibition (Mus musculus [11]) was “Active”. For the same compound, the inhibition in vivo at 10 mg/kg (Mus musculus [11]) was 33.3%, the inhibition in vivo at 50 mg/kg (Mus musculus [12]) was 36.2% and the inhibition (Mus musculus [13]) was “inactive”. The Activity (Rattus norvegicus [14]) was 15.1%, the Activity (Rattus norvegicus [15]) was “Active” and the Cmax [16] was 15.3 µM. For the same compound, the Cmax [17] was 27 µM, the Tmax [18] was 10.8 min and the Tmax [19] was 4.8 min. It also gave an AUC (Rattus norvegicus [20]) of 10 uM.hr/L, an AUC (Rattus norvegicus [21]) of 11.05 uM.hr/L and a half-life [22] of 130 min. The half-life [23] was 16.8 min, the bioavailability [24] was 18.1% and the pIC50 [4] was 4.63. The pIC50 [5] was 5.06 and the pIC50 (RAW264.7 [6]) was < 4.00.
`O=C(COc1ccc(/C=C2\SC(=O)NC2=O)cc1)Nc1ccccc1` showed an inhibition [1] of 55.3%.
In the case of `CC(=O)c1ccc(NC(=O)COc2ccc(/C=C3\SC(=O)NC3=O)cc2)cc1`, the inhibition [1] was 10.2%.
`Cc1ccc(NC(=O)COc2ccc(/C=C3\SC(=O)NC3=O)cc2)nc1` showed an inhibition [1] of 12.5%.
`O=C(COc1ccc(/C=C2\SC(=O)NC2=O)cc1)Nc1ccc(Br)cc1` showed an inhibition [1] of 23.7%.
With `CN(C(=O)COc1ccc(/C=C2\SC(=O)NC2=O)cc1)c1ccccc1` the inhibition [1] was 51%.
For `COc1ccc(NC(=O)COc2ccc(/C=C3\SC(=O)NC3=O)cc2)cc1OC`, the inhibition [1] was 16.2%.
`O=C(COc1ccc(/C=C2\SC(=O)NC2=O)cc1)Nc1ccc(F)cc1` showed an inhibition [1] of 57.9%.
In the case of `COc1ccc(NC(=O)COc2ccc(/C=C3\SC(=O)NC3=O)cc2)cc1`, the inhibition [1] was 0.6%.
In the case of `O=C(COc1ccc(/C=C2\SC(=O)NC2=O)cc1)Nc1cc(Cl)cc(Cl)c1`, the inhibition [1] was 72%, the pIC50 [2] was 4.83 and the pIC50 (RAW264.7 [3]) was < 4.00. For the same compound, the pIC50 [4] was 4.24, the pIC50 [5] was 4.58 and the pIC50 (RAW264.7 [6]) was < 4.00.
In the case of `O=C(COc1ccc(/C=C2\SC(=O)NC2=O)cc1)Nc1ccc(F)c(Cl)c1`, the inhibition [1] was 36%.

From ChEMBL document CHEMBL1765006, “Synthesis and biological evaluation of novel 5-benzylidenethiazolidine-2,4-dione derivatives for the treatment of inflammatory diseases” (J Med Chem, 2011)
